Reference: patent US11389446B2, “Theranostic agents” (THE HONG KONG UNIVERSITY OF SCIENCE AND TECHNOLOGY, priority 2017, dated 2022)

Experiments:
Type in all cases: physicochemical
[1] = Thermogravimetric analysis (TGA), thermal stability; settings: heating rate 10° C./min, nitrogen atmosphere
Experimental: ^1H (400 MHz) and ^13C (100 MHz) nuclear magnetic resonance (NMR) spectra were recorded on a Bruker AV 400 spectrometer by using CDCl3 or DMSO-d6 as the solvent. High-resolution mass spectra (HRMS) were measured on a GCT premier CAB048 mass spectrometer in MALDI-TOF mode. Thermogravimetric analysis (TGA) measurement was conducted on a TA TGA Q5000 with a heating rate of 10° C./min under nitrogen atmosphere. The UV-vis-NIR absorption spectra were performed on a PerkinElmer Lambda 365 spectrophotometer. The photoluminescence (PL) spectra were conducted using a Horiba Fluorolog-3 spectrofluorometer. Dynamic light scattering (DLS) was performed on a 90 plus particle size analyzer. Transmission electron microscopy (TEM) images were obtained on a JEM-2010F transmission electron microscope with an accelerating voltage of 200 kV.
(§1) For the RONS-stability study, two kinds of RONS were used, i.e., ONOO^− and .OH, which were prepared according to the literature. The absorption and photoluminescence spectra were recorded before and after addition of 0.4 mM of RONS. […] Then the photostability of TPA-T-TQ ONPs was evaluated along with ICG under continuous 808 nm laser irradiation (0.8 W/cm^2) by recording the apparent colors and absorption spectra after laser irradiation for different times. […]

[2] = Photostability under continuous 808 nm laser irradiation; settings: PBS pH 7.4, 808 nm laser 0.8 W/cm^2, 15 min
Experimental: (§2) For the photostability study, PBS solutions (pH 7.4) of TPA-T-TQ ONPs and ICG were irradiated under 808-nm laser (0.8 W/cm^2), and the absorption spectra were measured at different time points. For the anti-photobleaching study, the temperatures of the sample solutions were recorded during five circles of heating and cooling. In one heating-cooling circle, the NIR laser first irradiated the samples for 5 min to reach a steady state, then the laser was removed and the samples were naturally cooled down to ambient temperature in 6 min.
as §1
(§3) Then, the anti-photobleaching properties of TPA-T-TQ ONPs and ICG were evaluated by alternative heating and cooling processes (the NIR laser first irradiated the samples for 5 min to heat them up, then the laser was removed, and the samples were naturally cooled down to ambient temperature in 6 min).

[3] = Anti-photobleaching study, five circles of heating-cooling; settings: 100 μM, 808 nm 0.8 W/cm^2
Experimental: as §2, §3

RONS-stability study = settings: PBS, ICG read at 780 nm
Experimental: For the RONS-stability study, two kinds of RONS were used, i.e., ONOO^− and .OH, which were prepared according to the literature. The absorption and photoluminescence spectra were recorded before and after addition of 0.4 mM of RONS. The stabilities of the contrast agents in terms of thermal and photothermal stabilities as well as photobleaching and RONS resistances are crucial for PAI/PTT applications in vivo because incorrect or misleading signals, weakened therapeutic efficacy, and harmful side effects can result if the structure of the agent is destroyed, especially in living systems. Thermogravimetric analysis (TGA) was first carried out to measure the thermal stability of TPA-T-TQ. The decomposition temperature for 5% weight loss of TPA-T-TQ was above 400° C. […] Then the photostability of TPA-T-TQ ONPs was evaluated along with ICG under continuous 808 nm laser irradiation (0.8 W/cm^2) by recording the apparent colors and absorption spectra after laser irradiation for different times. […]
Another important issue related to in vivo applications is the physiological stability against highly reactive molecules such as RONS. […] Therefore, the stability of TPA-T-TQ ONPs and ICG in the presence of two kinds of RONS, peroxynitrite (ONOO^−) and hydroxyl radical (.OH), were measured under physiological conditions. […]

[4] = Photothermal performance in PBS under 808 nm laser; settings: PBS pH 7.4, 100 μM, 808 nm laser 0.8 W/cm^2, 5 min
Experimental: The PBS solution (pH 7.4) of TPA-T-TQ ONPs and ICG in different concentrations were continuously exposed to NIR laser of 808 nm with a power intensity of 0.8 W/cm^2 for 5 min. The temperature was measured every 20 s and stopped until the temperature nearly reached a plateau. The corresponding IR thermal images were also recorded. To evaluate the photothermal conversion property, we quantitatively measured the temperature change of TPA-T-TQ ONP solution at different concentrations as a function of 808 nm laser (0.8 W/cm^2) irradiation time. As depicted in FIG. 9B, temperature increases very fast initially, and reaches a plateau after 3 min laser irradiation. It is noted that the eventual temperature at the plateau depends on the ONP concentration. The temperature increase of ONPs and ICG solutions upon exposure to 808 nm laser irradiation was compared. […] The difference in temperature elevation of the two samples at various irradiation times can be intuitively visualized from the infrared (IR) thermal images (FIG. 9A).

[5] = after two circles of heating-cooling

Row | decomposition temperature for 5% weight loss [1] | colors and absorption spectra / maximal absorption intensity after NIR light irradiation [2] | temperature elevation relative to the original value [3, 5] | temperature elevation ΔT after two circles [3, 5] | temperature elevation ΔT, original value ([3]; first heating) | maximal absorption intensity relative to the original value after .OH (RONS-stability study; 400 μM .OH for 1 min) | maximal absorption intensity relative to the original value after ONOO^− (RONS-stability study; 400 μM ONOO^− for 1 min) | temperature increase ΔT in 5 min [4] | SMILES
1 | above 400 °C |  |  |  |  |  |  |  | Cc1ccc(N(c2ccc(-c3ccc(-c4c5nsnc5c(-c5ccc(-c6ccc(N(c7ccc(C)cc7)c7ccc(C(C)(C)C)cc7)cc6)s5)c5nc(-c6ccccc6)c(-c6ccccc6)nc45)s3)cc2)c2ccc(C(C)(C)C)cc2)cc1 [TPA-T-TQ, 4,4′-((6,7-Diphenyl-[1,2,5]thiadiazolo[3,4-g]quinoxaline-4,9-diyl)bis(thiophene-5,2-diyl))bis(N-(4-(tert-butyl)phenyl)-N-(p-tolyl)aniline)]
2 |  | nearly drops to zero | about 20% | ~10 °C | ~44 °C | ~4% | about 60% | ~43 °C | CC1(C)C(/C=C/C=C/C=C/C=C2\N(CCCCS(=O)(=O)O)c3ccc4ccccc4c3C2(C)C)=[N+](CCCCS(=O)(=O)[O-])c2ccc3ccccc3c21 [ICG, indocyanine green]
